Among the data in US20240132449A1, “HETEROCYCLIC COMPOUNDS AND METHODS OF USE THEREOF” (1cBio, Inc., priority 2022, published 2024) are inhibition and IC50 values, retold here.

Experiment [1] relates to DLD-1 wild-type colorectal adenocarcinoma cells. Briefly: Cell viability assay (Cell Titer-Glo), DLD-1 wild-type. Type of experiment: cell-based. Particulars: Homo sapiens, DLD-1, 168 h, 7 days incubation; for inhibition at 10 µM: read-out: DLD-1 wild-type % inh at 10 μM; for IC50: 50 cells/well. As to the method:
(§1) Compounds of the present disclosure were tested for their effects on the viability of cancer cells. DLD-1 wild-type and DLD-1 BRCA2(−/−) colorectal adenocarcinoma cells, an isogenic pair of cell lines differing in the presence and absence, respectively, of both BRCA2 alleles, were used. The cells were harvested during the logarithmic growth period, counted, and seeded at 50 cells/well for DLD-1 wild-type and 200 cells/well for DLD-1 BRCA2(−/−) in a 384-well cell culture plate. After seeding, cells were incubated at 37° C., 5% CO2 overnight. Cells were treated with serially diluted test compounds at 10 concentrations (e.g., from 1.5 nM-30 μM) for generation of dose response curves, or at a single concentration. The plate was further incubated for another 7 days in a humidified incubator at 37° C. and 5% CO2. Cell viability was assessed by luminescence measurement after addition of Cell Titer-Glo reagent (Promega, Madison, Wis.) according to the manufacturer's instructions. Cell viability IC50 values were calculated using XLFit, equation 201: y=A+((B−A)/(1+((x/C)^D))), where A=bottom, B=top, C=IC50, and D=slope. IC50 values are shown in Table B and are presented in ranges, in which “+++”<300 nM, 300 nM≤“++”<3000 nM, and “+”≥3000 nM. Values for percent inhibition at 10 μM are also shown in Table B and are presented in ranges, in which “***”≥67%, 33%≤“**”<67%, and “*”<33%. Effects of the test compounds on the viability of other cell lines such as MDA-MB-436, MDA-MB-231, SUM149PT, HCC1395, and UWB1.289 are determined in an analogous method.
Background: ATP-based viability assays read luminescence as a measure of living cells.

The target of experiment [2] is PARP1 (Homo sapiens, UniProt P09874). Briefly: PARP1 fluorescence polarization binding assay. The conditions noted are these: binding IC50, GST-tagged PARP1 20 nM, PARPi-FL 3 nM. As to the method: Compounds of the present disclosure were tested in a PARP1 fluorescence polarization binding assay at Pharmaron (Beijing, P.R.China). In this biochemical assay, binding of test compound to recombinant human PARP1 reduces the amount of binding of a fluorescent probe, and consequently reduces the detected level of fluorescence polarization. Test compound stock solutions were prepared in DMSO and then serially diluted into 10 concentrations by 3-fold dilution in a 384-well plate using a TECAN EVO200. 60 nL of each dilution was transferred to the plate using an Echo550 (Labcyte), and then 10 μL 40 nM GST-tagged PARP1 (BPS Bioscience, Cat #80501), diluted in assay buffer (50 mM Tris pH 8.0, 0.001% Triton X-100, 10 mM MgCl2, 150 mM NaCl), was added to the plate. After a centrifugation at 1000 rpm for 1 min, the assay plate was incubated for 30 min at RT. 10 μL 6 nM PARPi-FL (TOCRIS, Cat #6461), diluted using assay buffer, was then added to the plate. The final concentrations of PARP1 and PARPi-FL were 20 nM and 3 nM, respectively, in a total volume of 20 μL. After a centrifugation at 1000 rpm for 1 min, the assay plate was incubated for 4 h at RT. Samples in each well were read using an Envision instrument (Perkin-Elmer; Ex=480 nm Em=FITC FP-P pol 535 nm & FITC FP-S pol 535 nm). Percent inhibition was calculated from mP values using Inhibition (%)=[1−(mPc−mPL)/(mPH−mPL)]×100%, where mPc, mPL, and mPH are the mP values of test compound, Low controls, and High controls, respectively. Binding IC50 values were calculated using XLFit (equation 201: y=A+((B−A)/(1+((x/C)^D))), where A=bottom, B=top, C=IC50, and D=slope) with a floating top and bottom for curves. Binding IC50 values are shown in Table A and are presented in ranges, in which “+++”<100 nM, 100 nM≤“++”<3000 nM, and “+”≥3000 nM.
PARP1, sequence (P09874 whole entry): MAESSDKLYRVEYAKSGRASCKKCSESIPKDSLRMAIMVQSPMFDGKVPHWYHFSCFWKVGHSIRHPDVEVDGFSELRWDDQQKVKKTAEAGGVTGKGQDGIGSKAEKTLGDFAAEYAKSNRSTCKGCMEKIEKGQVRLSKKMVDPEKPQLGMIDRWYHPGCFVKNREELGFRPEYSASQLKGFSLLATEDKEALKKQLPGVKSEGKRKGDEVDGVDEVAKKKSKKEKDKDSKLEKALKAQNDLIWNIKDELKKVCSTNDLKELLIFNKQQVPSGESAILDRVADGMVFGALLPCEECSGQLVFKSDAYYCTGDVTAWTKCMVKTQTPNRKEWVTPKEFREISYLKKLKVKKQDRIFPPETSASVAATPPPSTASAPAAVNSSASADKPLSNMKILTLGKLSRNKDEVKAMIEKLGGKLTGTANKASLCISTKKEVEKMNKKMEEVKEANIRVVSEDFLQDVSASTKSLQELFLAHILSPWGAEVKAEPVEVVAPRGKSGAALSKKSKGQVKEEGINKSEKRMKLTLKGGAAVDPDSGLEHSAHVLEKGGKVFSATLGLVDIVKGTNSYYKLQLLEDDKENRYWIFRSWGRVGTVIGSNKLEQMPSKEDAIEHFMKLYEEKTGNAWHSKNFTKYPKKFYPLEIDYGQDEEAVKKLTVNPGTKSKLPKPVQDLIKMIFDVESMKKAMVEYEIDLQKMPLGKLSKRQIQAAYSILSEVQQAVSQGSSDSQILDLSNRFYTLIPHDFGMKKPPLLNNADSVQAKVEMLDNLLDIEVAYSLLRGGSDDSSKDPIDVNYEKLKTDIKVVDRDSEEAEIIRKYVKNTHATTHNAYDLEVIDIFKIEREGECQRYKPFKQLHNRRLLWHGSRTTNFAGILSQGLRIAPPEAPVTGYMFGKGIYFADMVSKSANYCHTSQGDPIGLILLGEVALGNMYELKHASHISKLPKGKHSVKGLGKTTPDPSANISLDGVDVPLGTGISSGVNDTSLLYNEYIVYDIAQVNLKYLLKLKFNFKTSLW
For orientation: In fluorescence polarisation assays a small probe gives low polarisation when free and higher when bound to something large.

Experiment [3] addresses recombinant human PARP2 (Homo sapiens, UniProt Q9UGN5). Briefly: PARP2 fluorescence polarization binding assay. Particulars: for IC50: binding IC50, GST-tagged PARP2 20 nM, PARPi-FL 3 nM; for inhibition at 10 µM: read-out: PARP2 % inh at 10 μM. As to the method: Compounds of the present disclosure were tested in a PARP2 fluorescence polarization binding assay at Pharmaron (Beijing, P.R. China). In this biochemical assay, binding of test compound to recombinant human PARP2 reduces the amount of binding of a fluorescent probe, and consequently reduces the detected level of fluorescence polarization. Test compound stock solutions were prepared in DMSO and then serially diluted into 10 concentrations by 3-fold dilution in a 384-well plate using a TECAN EVO200. Alternatively, a single concentration was prepared. 60 nL of each dilution was transferred to the plate using an Echo550 (Labcyte), and then 10 μL 40 nM GST-tagged PARP2 (BPS Bioscience, Cat #80502), diluted in assay buffer (50 mM Tris pH 8.0, 0.001% Triton X-100, 10 mM MgCl2, 150 mM NaCl), was added to the plate. After a centrifugation at 1000 rpm for 1 min, the assay plate was incubated for 30 min at RT. 10 μL 6 nM PARPi-FL (TOCRIS, Cat #6461), diluted using assay buffer, was then added to the plate. […] After a centrifugation at 1000 rpm for 1 min, the assay plate was incubated for 4 h at RT. Samples in each well were read using an Envision instrument (Perkin-Elmer; Ex=480 nm Em=FITC FP-P pol 535 nm & FITC FP-S pol 535 nm). […] Binding IC50 values were calculated using XLFit (equation 201: […])^D))), where A=bottom, B=top, C=IC50, and D=slope) with a floating top and bottom for curves.

The subject of experiment [4] is DLD-1 BRCA2(−/−) colorectal adenocarcinoma cells. Briefly: Cell viability assay (Cell Titer-Glo), DLD-1 BRCA2(−/−). Particulars: Homo sapiens, DLD-1, 168 h; 7 days incubation, 200 cells/well. Type of experiment: cell-based. As to the method: as §1

Counter-ions that a name gives are not always drawn.

recombinant human PARP2, sequence (Q9UGN5 whole entry): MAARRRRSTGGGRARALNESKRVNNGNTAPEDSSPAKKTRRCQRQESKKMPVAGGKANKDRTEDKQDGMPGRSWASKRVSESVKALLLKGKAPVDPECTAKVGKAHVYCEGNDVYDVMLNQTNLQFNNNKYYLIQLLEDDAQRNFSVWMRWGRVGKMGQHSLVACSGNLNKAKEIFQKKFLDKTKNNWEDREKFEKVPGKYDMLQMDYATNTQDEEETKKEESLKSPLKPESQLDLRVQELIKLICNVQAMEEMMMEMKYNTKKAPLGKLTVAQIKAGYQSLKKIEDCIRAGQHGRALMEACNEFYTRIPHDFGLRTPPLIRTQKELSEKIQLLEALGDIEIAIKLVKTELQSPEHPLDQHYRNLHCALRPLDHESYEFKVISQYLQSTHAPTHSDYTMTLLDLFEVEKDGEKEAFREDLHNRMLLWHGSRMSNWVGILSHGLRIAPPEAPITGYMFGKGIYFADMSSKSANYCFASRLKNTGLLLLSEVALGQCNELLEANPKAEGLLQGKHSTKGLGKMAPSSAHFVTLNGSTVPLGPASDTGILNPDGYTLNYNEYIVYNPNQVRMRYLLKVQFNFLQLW

As usually defined, the IC50 is the concentration needed to halve the response being measured. Consider `CCn1c(=O)[nH]c2cc(CN3CCN(c4ccc(C(=O)NC)cc4F)CC3)sc2c1=O` [Compound 232], for which the inhibition at 10 µM in experiment [1] was below 33%; in experiment [3] it was 33 to 67%. Further, the IC50 in experiment [1] was above 3000 nM; in experiment [2], below 100 nM; in experiment [3], above 3 µM; in experiment [4], above 3000 nM.
With `CCn1c(=O)[nH]c2cc(CN3CCN(c4ccc(C(=O)NC)nc4C)CC3)cc(Br)c2c1=S` [Compound 501, 5-(4-((5-bromo-3-ethyl-2-oxo-4-thioxo-1,2,3,4-tetrahydroquinazolin-7-yl)methyl)piperazin-1-yl)-N,6-dimethylpicolinamide formate], the figures for the inhibition at 10 µM in experiment [1] and in experiment [3] were below 33% and 33 to 67%, respectively. For the same compound, the IC50 in experiment [1] is above 3000 nM; in experiment [2] it was below 100 nM; in experiment [3] it was above 3 µM; in experiment [4] it was 300 to 3000 nM.
`CNC(=O)c1ccc(N2CCN(Cc3ccc4c(=O)n(C(C)C)c(=O)[nH]c4c3)CC2)cn1` [Compound 4, 5-(4-((3-isopropyl-2,4-dioxo-1,2,3,4-tetrahydroquinazolin-7-yl)methyl)piperazin-1-yl)-N-methylpicolinamide]: the inhibition at 10 µM in experiment [1] and in experiment [3] was 33 to 67% throughout. The IC50 in experiment [1] was above 3000 nM; in experiment [2], below 100 nM; in experiment [3], above 3 µM; in experiment [4], above 3000 nM.
Regarding `CCn1c(=O)[nH]c2cc(CN3CC(Oc4ccc(C(=O)NC)nc4C)C3)sc2c1=O` [Compound 328], the IC50 in experiment [2] lay within 100 to 3000 nM.
With `CNC(=O)c1ccc(N2CCN(Cc3ccc4c(=O)n(C5CC5)c(=O)[nH]c4c3)CC2)cn1` [Compound 5, 5-(4-((3-cyclopropyl-2,4-dioxo-1,2,3,4-tetrahydroquinazolin-7-yl)methyl)piperazin-1-yl)-N-methylpicolinamide], the results for the inhibition at 10 µM in experiment [1] and in experiment [3] were below 33% and 33 to 67%, respectively. The IC50 in experiment [1] was above 3000 nM; in experiment [2] it was below 100 nM; in experiment [3], above 3 µM; in experiment [4], above 3000 nM.
Turning to `CCn1c(=O)[nH]c2sc(CN3CCN(c4ccc(C(=O)NC)nc4C)CC3)cc2c1=O` [Compound 186], in experiment [2], the IC50 is below 100 nM.
Same read-out and setting: next, `CCn1c(=O)[nH]c2cc(CN3CCN(c4ccc(NC(C)=O)nc4C)CC3)sc2c1=O` [Compound 528, N-(5-(4-((3-ethyl-2,4-dioxo-1,2,3,4-tetrahydrothieno[3,2-d]pyrimidin-6-yl)methyl)piperazin-1-yl)-6-methylpyridin-2-yl)acetamide]: below 100 nM.
In experiment [2], `CCn1c(=O)[nH]c2cc(CN3CCN(c4ccc(-n5cccn5)nc4C)CC3)sc2c1=O` [Compound 306, 3-ethyl-6-({4-[2-methyl-6-(pyrazol-1-yl)pyridin-3-yl]piperazin-1-yl}methyl)-1H-thieno[3,2-d]pyrimidine-2,4-dione] displayed an IC50 below 100 nM.
On the same count and under the same terms, the value for `CCn1c(=O)[nH]c2cc(CN3CCN(c4ccc(C(=O)NC)nc4C)CC3=O)sc2c1=O` [Compound 305, 5-(4-((3-ethyl-2,4-dioxo-1,2,3,4-tetrahydrothieno[3,2-d]pyrimidin-6-yl)methyl)-3-oxopiperazin-1-yl)-N,6-dimethylpicolinamide] was below 100 nM.
Regarding `CCn1c(=O)[nH]c2cc(C(=O)N3CCN(c4ccc(C(=O)NC)nc4)CC3)ccc2c1=O` [Compound 130, 5-(4-(3-ethyl-2,4-dioxo-1,2,3,4-tetrahydroquinazoline-7-carbonyl)piperazin-1-yl)-N-methylpicolinamide], the IC50 in experiment [2] was below 100 nM. In experiment [3], the IC50 was above 3 µM and the inhibition at 10 µM lay in the range of 33 to 67%.
In the case of `CCn1c(=O)[nH]c2cc(CN3CCN(c4ccc(C(=O)N5CCCC5)nc4C)CC3)sc2c1=O` [Compound 526, 3-ethyl-6-[(4-{2-methyl-6-[(pyrrolidin-1-yl)carbonyl]pyridin-3-yl}piperazin-1-yl)methyl]-1H-thieno[3,2-d]pyrimidine-2,4-dione], the IC50 in experiment [2] is above 3000 nM.
On the same count and under the same terms, next, `CCn1c(=O)[nH]c2cc(CN3CCN(c4ccc(-c5ncc[nH]5)nc4C)CC3)sc2c1=O` [Compound 357, 64(4-(6-(1H-imidazol-2-yl)-2-methylpyridin-3-yl)piperazin-1-yl) methyl)-3-ethylthieno[3,2-d]pyrimidine-2,4(1H,3H)-dione formate]: below 100 nM; `CCn1c(=O)[nH]c2cc(CN3CCN(c4ccc(CNC)nc4C)CC3)sc2c1=O` [Compound 529, 3-ethyl-6-((4-(2-methyl-6-((methylamino)methyl)pyridin-3-yl)piperazin-1-yl)methyl)thieno[3,2-d]pyrimidine-2,4(1H,3H)-dione]: above 3000 nM.
Consider `CNC(=O)c1ccc(N2CCN(Cc3ccc4c(=O)[nH]c(=O)[nH]c4c3)CC2)cn1` [Compound 1, 5-(4-((2,4-dioxo-1,2,3,4-tetrahydroquinazolin-7-yl)methyl)piperazin-1-yl)-N-methylpicolinamide formate], for which the IC50 in experiment [2] lay in the range of 100 to 3000 nM. The inhibition at 10 µM in experiment [3] was 33 to 67%.
The compound `CCn1c(=O)[nH]c2cc(CN3CCN(c4ccc(C(=O)NC#N)nc4C)CC3)sc2c1=O` [Compound 313, N-cyano-5-(4-((3-ethyl-2,4-dioxo-1,2,3,4-tetrahydrothieno[3,2-d]pyrimidin-6-yl)methyl)piperazin-1-yl)-6-methylpicolinamide, ammonia salt] came in with an IC50 in experiment [2] of 100 to 3000 nM. In addition, in experiment [3], the IC50 was above 3 µM and the inhibition at 10 µM was 33 to 67%.
`CCn1c(=O)[nH]c2sc(CN3CCN(c4ccc(C(=O)NC)nc4F)CC3)cc2c1=O` [Compound 530, 5-(4-((3-ethyl-2,4-dioxo-1,2,3,4-tetrahydrothieno[2,3-d]pyrimidin-6-yl)methyl)piperazin-1-yl)-6-fluoro-N-methylpicolinamide bis formate] yielded an IC50 in experiment [2] below 100 nM.
In experiment [2], `CCn1c(=O)[nH]c2cc(CN3CCN(c4ccc(C#N)cn4)CC3)sc2c1=O` [Compound 531] had an IC50 below 100 nM.
